Reference: paper PMC11200944, “Hybrid Caffeic Acid-Based DHFR Inhibitors as Novel Antimicrobial and Anticancer Agents” (Antibiotics, 2024)
Converted amounts (≈) assume the structure as drawn. Where two headings read alike, the source gives them in different places.

Tests used:
[1] = system: C. albicans (ATCC SC5314); experiment: Antifungal MIC, broth microdilution; assay type: cell-based, Candida albicans; settings: for MIC: read-out: MIC (µM) C. albicans
Experimental: (§1) The serial dilution technique was utilized to evaluate the antimicrobial activity of synthesized derivatives against Gram-negative, Gram-positive, and fungal strains. […] To dissolve the reference and sample derivatives, DMSO was employed as a solvent. The synthesized compounds were evaluated for their antibacterial effectiveness against E. coli, P. aeruginosa, and S. aureus, and their antifungal potential was tested against Candida albicans and Aspergillus niger.
(§2) The antibacterial and antifungal activity of potential synthesized compounds was evaluated using the broth microdilution method to determine their minimum inhibitory concentration (MIC). […] Individual MIC (µM) values were determined using serial dilution technique with Mueller–Hinton Broth (MHB) media for bacterial growth and Roswell Park Memorial Institute (RPMI) media for fungal growth. […] The turbidity of the spore suspension was corrected to 0.5 McFarland by adding distilled water. Stock solutions of synthesized compounds were prepared in DMSO solvent and serially diluted to determine the MIC value. Each spore (0.1 mL) was put into each well holding the finally serially diluted synthesized compound concentration, standards, and controls. […] Agar plate spotting was carried out for each spore and incubated for 24 h at 37 ± 1 °C (for bacteria spores), 48 h at 37 ± 1 °C (for C. albicans), and 7 days at 25 ± 1 °C (for A. niger) to determine CFU. To assess reproducibility, duplicate tests were performed on three separate days.

[2] = system: E. coli (ATCC 25922); experiment: Antibacterial MIC, broth microdilution; assay type: cell-based, Escherichia coli; settings: read-out: MIC (µM) E. coli
Experimental: as §1, §2

[3] = system: P. aeruginosa (ATCC 27853); experiment: Antibacterial MIC, broth microdilution; assay type: cell-based, Pseudomonas aeruginosa; settings: read-out: MIC (µM) P. aeruginosa
Experimental: as §1, §2

[4] = system: A. niger (MTCC 1688); experiment: Antifungal MIC, broth microdilution; assay type: cell-based, Aspergillus niger; settings: for MIC: read-out: MIC (µM) A. niger
Experimental: as §1, §2

[5] = system: S. aureus (ATCC FDA209-P); experiment: Antibacterial MIC, broth microdilution; assay type: cell-based, Staphylococcus aureus; settings: read-out: MIC (µM) S. aureus
Experimental: as §1, §2

[6] = system: MCF-7 breast cancer cell line; experiment: Anticancer activity (MTT assay); assay type: cell-based; settings: Homo sapiens
Experimental: The anticancer potential of synthesized derivatives was assessed by targeting the MCF-7 breast cancer cell line.
The potential newly synthesized derivatives were evaluated for their cytotoxic activity on the MCF-7 cell line (sourced from NCCS in Pune, India) using the MTT (3-[4,5-dimethylthiazol-2-yl]-2,5-diphenyl tetrazolium bromide) assay. To perform the assay, 10,000 cells were placed in each well of 96-well plates and left to incubate for 24 h in Dulbecco’s Modified Eagle Medium (DMEM). The medium was supplemented with 1% antibiotic solution and 10% FBS (fetal bovine serum), and the incubation occurred at a temperature of 37 °C in an environment containing 5% CO2. […] The cultures were then subjected to additional 2 h incubation. Upon concluding the experiment, the culture supernatant was extracted, and the cellular matrix was dissolved in 100 µL of DMSO. The absorbance of the resulting solution underwent evaluation using an ELISA plate reader (iMark, Biorad, Hercules, CA, USA) at 540 nm. Triplicate measurements were performed to enhance the reliability and reproducibility of the results obtained.

[7] = target: T1, DHFR (Homo sapiens, UniProt P00374); experiment: In vitro DHFR inhibition assay (DHFR assay kit CS0340, spectrophotometric, 340 nm); assay type: biochemical
T1 construct: purchased Sigma-Aldrich CS0340
T1 sequence (P00374 1-187): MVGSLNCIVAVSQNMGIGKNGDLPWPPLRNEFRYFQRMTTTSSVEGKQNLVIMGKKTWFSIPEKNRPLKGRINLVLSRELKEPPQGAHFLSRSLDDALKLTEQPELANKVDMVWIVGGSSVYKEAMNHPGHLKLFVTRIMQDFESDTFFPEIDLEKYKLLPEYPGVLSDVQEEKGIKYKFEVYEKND
Experimental: This assessment was carried out using the DHFR assay kit (catalog number CS0340, Sigma-Aldrich, Burlington, MA, USA) by using a spectrophotometric method. The enzymatic […] of dihydrofolic acid to tetrahydrofolic acid was monitored at 340 nm for 180 s, following the procedure recommended by the manufacturer of the assay kit. […] To evaluate the ability of the synthesized derivatives to block DHFR activity, a spectrophotometric assay technique was utilized at 340 nm for 180 seconds to detect the enzyme-catalyzed conversion of dihydrofolic acid to tetrahydrofolic acid. The DHFR assay kit (Sigma-Aldrich, catalog number CS0340) was used in this assay. The kit was tested using recombinant DHFR, NIH 3T3, A431, and CHO cell lines, as well as rat kidney, brain, liver, and muscle tissue extracts. Dihydrofolic acid, NADPH, standard drug solution, assay buffer, and DHFR stock solutions were prepared according to the instructions given in the technical bulletin that came along with the test kit. Except for the assay buffer, all stock solutions were stored on ice.
Each well of a 96-well clear microplate was filled with a calculated amount of assay buffer (190 μL), followed by 6 μL of diluted DHFR, which was thoroughly mixed. […] The microplate was then covered with parafilm, and the contents were mixed by inversion. Following the addition of 1 μL of substrate dihydrofolic acid, the absorbance was measured at 340 nm over a period of 180 s using an ELISA reader (Gen BioTek Microplate Reader, Winooski, VT, USA) in kinetic mode at room temperature. Plotting the relationship between absorbance and time generates the slope for each test inhibitor sample. The relative inhibition percentages were calculated using Equation (1). % relative inhibition = (slope of [EC] − slope of [S]/slope of [EC]) × 100(1) where S is the sample of interest, EC (enzyme control).

[8] = Candida albicans, SC5314, RPMI, 37 °C, 48 h
[9] = Escherichia coli, ATCC25922, MHB, 37 °C, 24 h
[10] = Pseudomonas aeruginosa, ATCC27853, MHB, 37 °C, 24 h
[11] = Aspergillus niger, MTCC1688, 168 h, RPMI, 25 °C, 7 days
[12] = Staphylococcus aureus, FDA209, MHB, 37 °C, 24 h
[13] = MCF7, read-out: Anticancer IC50 (µM), n = 3, MCF-7, MTT, 24 h
[14] = read-out: DHFR Inhibition IC50 (µM) ± SD, n = 3, 180 s
[15] = MCF7, 24 h, read-out: Anticancer IC50 (µM), n = 3

Compound `COc1cc(Cc2cnc(N)nc2N)cc(OC)c1OC` [Trimethoprim, reference compound] has an MIC [1, 8] of 255 µM (≈ 74 µg/mL), an MIC [2, 9] of 31 µM (≈ 9 µg/mL) and an MIC [3, 10] of 31 µM (≈ 9 µg/mL). For the same compound, the MIC [4, 11] was 127 µM (≈ 36.9 µg/mL) and the MIC [5, 12] was 63 µM (≈ 18.3 µg/mL).
In the case of `COc1ccc(C=Nn2c(S)nnc2C=Cc2ccc(O)c(O)c2)cc1` [CTh1, 4-(2-(4-(4-methoxybenzylideneamino)-5-mercapto-4H-1,2,4-triazol-3-yl)vinyl)benzene-1,2-diol], the MIC [1, 8] is reported as 173 µM (≈ 63.7 µg/mL), the MIC [2, 9] is reported as 86 µM (≈ 31.7 µg/mL) and the MIC [3, 10] is reported as 86 µM (≈ 31.7 µg/mL). For the same compound, the IC50 [6, 13] was 148 ± 11.4 µM, the “MIC (µM) A. niger” value ([4]; RPMI, 25 °C, 7 days) was “-” and the IC50 ([7]; 180 s) was 17 ± 1.1 µM. For the same compound, the MIC [5, 12] was 43 µM (≈ 15.8 µg/mL).
Compound `O=[N+]([O-])c1cccc(C=Nn2c(S)nnc2C=Cc2ccc(O)c(O)c2)c1` [CTh3, 4-(2-(4-(3-nitrobenzylideneamino)-5-mercapto-4H-1,2,4-triazol-3-yl)vinyl)benzene-1,2-diol] has an MIC [1, 8] of 20 µM (≈ 7.67 µg/mL), an MIC [2, 9] of 10 µM (≈ 3.83 µg/mL) and an MIC [3, 10] of 10 µM (≈ 3.83 µg/mL). For the same compound, the MIC [4, 11] was 83 µM (≈ 31.8 µg/mL) and the MIC [5, 12] was 5 µM (≈ 1.92 µg/mL).
`Nn1c(S)nnc1C=Cc1ccc(O)c(O)c1` [CTh] was tested, and the “MIC (µM) C. albicans” value ([1]; RPMI, 37 °C, 48 h) was “-”, the MIC ([2]; MHB, 37 °C, 24 h) was 255 µM (≈ 63.8 µg/mL) and the MIC ([3]; MHB, 37 °C, 24 h) was 127 µM (≈ 31.8 µg/mL). For the same compound, the MIC ([4]; RPMI, 25 °C, 7 days) was 127 µM (≈ 31.8 µg/mL), the IC50 [7, 14] was 16.9 ± 1.2 µM and the MIC ([5]; MHB, 37 °C, 24 h) was 63 µM (≈ 15.8 µg/mL).
`CN(C)[C@@H]1C(O)=C(C(N)=O)C(=O)[C@@]2(O)C(O)=C3C(=O)c4c(O)cccc4[C@@](C)(O)[C@H]3C[C@@H]12` [Tetracycline, reference compound] was tested, and the MIC [2, 9] was 36 µM (≈ 16 µg/mL), the MIC [3, 10] was 36 µM (≈ 16 µg/mL) and the MIC [5, 12] was 144 µM (≈ 64 µg/mL).
`CC1(C)S[C@@H]2[C@H](NC(=O)[C@H](N)c3ccccc3)C(=O)N2[C@H]1C(=O)O` [Ampicillin, reference compound] was tested, and the MIC [2, 9] was 11 µM (≈ 3.84 µg/mL), the MIC [3, 10] was 22 µM (≈ 7.69 µg/mL) and the MIC [5, 12] was 11 µM (≈ 3.84 µg/mL).
`COc1cccc2c1C(=O)c1c(O)c3c(c(O)c1C2=O)C[C@@](O)(C(=O)CO)C[C@@H]3O[C@H]1C[C@H](N)[C@H](O)[C@H](C)O1` [doxorubicin, reference compound] showed an IC50 [6, 13] of 3.62 µM.
With `Oc1ccc(/C=C/c2nnc(S)n2/N=C/c2cc3ccccc3cc2O)cc1O` [CTh7, 4-(2-(4-(4-naphthalen-2-ol)-5-mercapto-4H-1,2,4-triazol-3-yl)vinyl)benzene-1,2-diol] the “MIC (µM) C. albicans” value ([1]; RPMI, 37 °C, 48 h) was “-”, the MIC [2, 9] was 39 µM (≈ 15.8 µg/mL) and the MIC [3, 10] was 19 µM (≈ 7.68 µg/mL). The IC50 [6, 13] was 8.53 ± 0.19 µM, the “MIC (µM) A. niger” value ([4]; RPMI, 25 °C, 7 days) was “-” and the IC50 ([7]; 180 s) was 0.15 ± 0.02 µM. For the same compound, the MIC [5, 12] was 19 µM (≈ 7.68 µg/mL).
`O=[N+]([O-])c1ccccc1C=Nn1c(S)nnc1C=Cc1ccc(O)c(O)c1` [CTh6, 4-(2-(4-(2-nitrobenzylideneamino)-5-mercapto-4H-1,2,4-triazol-3-yl)vinyl)benzene-1,2-diol] showed an MIC ([1]; Candida albicans, SC5314, 48 h) of 41 µM (≈ 15.7 µg/mL), an MIC ([2]; Escherichia coli, ATCC25922, 24 h) of 20 µM (≈ 7.67 µg/mL) and an MIC ([3]; Pseudomonas aeruginosa, ATCC27853, 24 h) of 10 µM (≈ 3.83 µg/mL). For the same compound, the IC50 [6, 15] was 89.2 ± 4.17 µM, the MIC ([4]; Aspergillus niger, MTCC1688, 168 h) was 83 µM (≈ 31.8 µg/mL) and the IC50 ([7]; 180 s) was 10.5 ± 0.7 µM. It also gave an MIC ([5]; Staphylococcus aureus, FDA209, 24 h) of 10 µM (≈ 3.83 µg/mL).
In the case of `OC(Cn1cncn1)(Cn1cncn1)c1ccc(F)cc1F` [Fluconazole, reference compound], the MIC [1, 8] is reported as 0.81 µM (≈ 0.248 µg/mL) and the MIC [4, 11] is reported as 260 µM (≈ 79.7 µg/mL).
`C[C@@H](c1ncncc1F)[C@](O)(Cn1cncn1)c1ccc(F)cc1F` [Voriconazole, reference compound] gave an MIC [1, 8] of 0.34 µM (≈ 0.119 µg/mL) and an MIC [4, 11] of 5 µM (≈ 1.75 µg/mL).
Work on `Oc1ccc(C=Nn2c(S)nnc2C=Cc2ccc(O)c(O)c2)cc1` [CTh4, 4-(2-(4-(4-hydroxylbenzylideneamino)-5-mercapto-4H-1,2,4-triazol-3-yl)vinyl)benzene-1,2-diol] yielded an MIC [1, 8] of 11 µM (≈ 3.9 µg/mL), an MIC [2, 9] of 5 µM (≈ 1.77 µg/mL) and an MIC [3, 10] of 5 µM (≈ 1.77 µg/mL). The IC50 [6, 15] was 122 ± 7.3 µM, the “MIC (µM) A. niger” value ([4]; RPMI, 25 °C, 7 days) was “-” and the MIC [5, 12] was 22 µM (≈ 7.8 µg/mL).
Work on “4-(2-(4-((2,4-dichlorocyclohexa-1,5-dienyl)methyleneamino)-5-mercapto-4H-1,2,4-triazol-3-yl)vinyl)benzene-1,2-diol [CTh10]” yielded an MIC ([1]; RPMI, 37 °C, 48 h) of 39 µM, an MIC ([2]; MHB, 37 °C, 24 h) of 39 µM and an MIC ([3]; MHB, 37 °C, 24 h) of 39 µM. For the same compound, the MIC ([4]; RPMI, 25 °C, 7 days) was 39 µM, the IC50 [7, 14] was 11.3 ± 0.92 µM and the MIC ([5]; MHB, 37 °C, 24 h) was 19 µM.
